# Test results: US20230107216A1, “PANTETHEINE DERIVATIVES AND USES THEREOF” (Comet Therapeutics, Inc., priority 2018, published 2023)
# Read-outs that look alike come from different tables or passages of the source.
# Columns and labels:
# [1] = test system: primary fibroblasts (healthy controls and PA, MMA, BCKDK, PDH, VLCAD, LS, PC, GA, VLCFA, KSS, FXN, HD); experiment: Measurement of ROS (H2DCFDA) in primary fibroblasts; assay type: cell-based, human; conditions: Homo sapiens, procedure Example 812, Assay Condition C
# Protocol: Primary adherent fibroblasts were cultured in minimum essential medium (MEM) (Gibco, 25030081) supplemented with 2 mM L-Glutamine (Gibco, 25030081), 15% fetal bovine serum (FBS) (Gibco, 26400044) and 1% penicillin/streptomycin (Gibco, 5140122) at 37° C. and 5% CO2. Cells were collected for either passaging or experiment at ˜70-80% confluence. Cells were obtained by trypsinization and seeded in cell culture microplates either white plate (Thermo Fisher Scientific, 152028) for luminescent measurement or black plate (Thermo Fisher Scientific, 165305) for fluorescent based read out for different assays listed below. Cells were obtained by trypsinization and […] were seeded and allowed to adhere for 16-18 hours to have confluency around 70-80% in the cell well with culture media. After 24 hours prior to measurements (37° C., 5% CO2) media was changed to Dulbecco's Modified Eagle Medium (DMEM, Agilent Seahorse cat #103575-100) with the appropriate supplements as stated below.
# Primary fibroblasts assayed were Healthy controls (GM00041, GM05659, GM23974 Coriell Institute for Medical Research), Propionic Acidemia (PA) (GM00371, GM03590 Coriell Institute for Medical Research, Tsi 6337 Trans-Hit Bio), Methylmalonic Acidemia (MMA) (GM01673, Coriell Institute for Medical Research, Tsi 5224, Tsi 4290 Trans-Hit Bio), Branched chain ketoacid dehydrogenase kinase (BCKDK) (GM00612, GM00649 Coriell Institute for Medical Research), Subnormal activation of pyruvate dehydrogenase complex (PDH) (GM01503 Coriell Institute for Medical Research), Very long-chain acyl-CoA dehydrogenase (VLCAD) (GM17475), Leigh Syndrome (LS) (GM03672, GM13411 Coriell Institute for Medical Research), Pyruvate Carboxylase Deficiency (PC) (GM00444 Coriell Institute for Medical Research), Glutaric Acidemia-I (GA), Impaired VLCFA oxidation (VLCFA) (GM13262), Kearns-Sayre Syndrome (KSS) (GM06225 Coriell Institute for Medical Research), Friedreich's Ataxia (FXN), Huntington's disease (HD) (GM21756 Coriell Institute for Medical Research). Next, cells were treated with compounds (10 μM) and ROS H2DCFDA (22 μM) dye for 2 hours in PA, MMA lines and for 24h for the other fibroblast lines. Kinetic read was started immediately with a i3x plate reader (492/527 nm) for 60 minutes.
# A total dead cell count was performed as described in Example 817 and only alive cells were used for analysis.
# [2] = test system: Methylmalonic Acidemia (MMA) primary fibroblasts Tsi 5224; experiment: Mitochondrial respiration, XFe96 Extracellular Flux Analyzer (OCR/ECAR), MMA fibroblasts Tsi 5224; assay type: cell-based; conditions: Homo sapiens, Fibroblast;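 as to Increase in Maximal Respiratory Capacity AUC: relative to vehicle DMSO control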
# Protocol: The effect of the compounds of the present disclosure on mitochondrial respiration was measured with a XFe96 Extracellular Flux Analyzer (Seahorse Bioscience, Agilent Technologies) and Oxygen consumption Rate (OCR) and Extracellular acidification rate (ECAR) determined.
# Cell culture and treatments. Primary adherent fibroblasts were cultured in minimum essential medium (MEM) (Gibco, 25030081) supplemented with 2 mM L-Glutamine (Gibco, 25030081), 15% fetal bovine serum (FBS) (Gibco, 26400044) and 1% penicillin/streptomycin (Gibco, 5140122) at 37° C. and 5% CO2. Cells were collected for either passaging or experiment at ˜70-80% confluence. Cells were obtained by trypsinization and seeded at 20000 cells/well in cell culture microplates (Seahorse Bioscience, 101085-004) and allowed to adhere for 16 hours in culture media.
# By profiling different primary cells and/or optimizing their culture media or environmental components one can select cell lines and/or conditions that are appropriate for the biological or disease model. In the present example, 24 hours prior to OCR and ECAR profiling, media was changed to Dulbecco's Modified Eagle Medium (DMEM, Agilent Seahorse 103575-100) with the appropriate supplements for the different primary cells (10 mM glucose, 2 mM L-glutamine, 1 mM pyruvate, 10% FBS; 1 mM glucose, 2 mM L-glutamine, 1 mM pyruvate, 10% FBS; 10 mM glucose, 10% FBS; 5 mM glucose 10% FBS; 1 mM glucose 10% FBS). Cells used in this example were: Propionic Acidemia (PA) (GM00371, GM03590 Coriell Institute for Medical Research, Tsi 6337, Tsi 4626, Tsi 3618 Trans-Hit Bio), Methylmalonic Acidemia (MMA) (GM01673, Coriell Institute for Medical Research, Tsi 5224 Trans-Hit Bio), Branched chain ketoacid dehydrogenase kinase (BCKDK) (GM00612, GM00649 Coriell Institute for Medical Research), Subnormal activation of pyruvate dehydrogenase complex (PDH) (GM01503 Coriell Institute for Medical Research), Very long-chain acyl-CoA dehydrogenase (VLCAD) (GM17475), Leigh Syndrome (LS) (GM03672, GM13411 Coriell Institute for Medical Research), Pyruvate Carboxylase Deficiency (PC) (GM00444 Coriell Institute for Medical Research), Glutaric Acidemia-I (GA) (GM10653), Friedreich's Ataxia (FXN) (GM04078 Coriell Institute for Medical Research, Huntington's disease (HD) (GM21756 Coriell Institute for Medical Research), Ornithine Transcarbamylase Deficiency (OTC) (GM12756 Coriell Institute for Medical Research), Kearns-Sayre Syndrome (KSS) (GM06225 Coriell Institute for Medical Research).
# One hour before the assay, the cells were washed with freshly prepared unbuffered serum free-Seahorse XF Assay medium (Seahorse Bioscience, North America, USA, 103575-100) with the same supplements as for the previous 24 hour incubation.
# After baseline measurements of OCR, cells were challenged with compounds of the present disclosure at different concentrations (10 to 50 μM) or vehicle (DMSO, 0.1%) and a post-compound baseline was recorded. OCR was measured after sequentially adding to each well 1 μg/ml oligomycin (inhibitor of ATP synthase Sigma-Aldrich, 753531), then maximal OCR was determined with carbonyl cyanide 4-(trifluoromethoxy) phenylhydrazone (FCCP, Sigma-Aldrich, C2920), (uncoupler of oxidative phosphorylation) and 0.5 μM of rotenone (Sigma-Aldrich, R8875) plus antimycin A (Sigma-Aldrich, A8674) (inhibitors of mitochondrial complex I and III) for determination of rotenone-antimycin insensitive respiration together with Hoechst for nuclear staining in situ when normalized to cell counts. After the analysis and nuclear staining, the XFp microplate was transferred to the Cytation 5, and the nuclear images were captured, the individual nuclei were identified and counted by BioTek Gen5 software. Data were expressed as pmol of O2 per minute and normalized by nuclear staining and baselined to pre-compound addition.
# Assay conditions were as stated below.
# Assay specifics on assay conditions are indicated below when readouts were normalized to cell counts. […]
# [3] = test system: Propionic Acidemia (PA) primary fibroblasts GM00371; experiment: Mitochondrial respiration, XFe96 Extracellular Flux Analyzer (OCR/ECAR), PA fibroblasts GM00371; assay type: cell-based; conditions: Homo sapiens, Fibroblast, assay condition C (10 mM glucose, 10% FBS), 50 μM, read-out: Increase in Maximal Respiratory Capacity AUC
# [4] = test system: monocyte-derived M1 macrophages; experiment: M1 differentiation assay (macrophage TNFα, IL6, IL10 ELISA, FACS); assay type: cell-based, human
# Protocol: Monocytes were isolated by positive isolation with CD14+ microbeads (Miltenyi, 130-050-201). Monocytes were 99% viable and were 96% purity as analyzed by FACS and CD14+ (BD, 563561). 100,000 monocytes along with compounds at the dose of 10 and 50 μM were allowed to differentiate to macrophages with 10 ng/ml GMCSF (R&D, 15-GM-050/CF) in RPMI complete media (Invitrogen, 22400089) with 15% FBS (Hyclone SV30087.03) and 1% Penicillin-Streptomycin (Gibco, 15140-122). On day 2 and 4 half the media was refreshed with fresh GM-CSF and compounds at 10 and 50 μM dose. On day 6 the macrophages were matured with GMCSF, IFNγ (R&D 285-IF-100/CF) and LPS (Sigma, L6143) in the presence of 10 μM and 50 μM of compounds. After 24h, supernatant was collected for the measurement of TNFα (DKW, 1117202) IL6 (DKW, 1110602), IL10 (DKW, 1110003) by ELISA. Macrophages were detached gently on ice with EDTA (Invitrogen, 15575-038) and analyzed by FACS (BD LSR Fortessa, 853492). Cells were stained for live/dead dye, surface and intracellular markers with fixation/permeabilization solution (BD, 554714) and ALIVE/DEAD™ Fixable Near-IR Dead Cell Stain Kit (BD, L34976), mouse anti human CD86 APC (BD, 555660), mouse anti-human CD163 PE (BD, 556018), mouse anti-human CD68 FITC (BD, 562117) or isotype controls anti-mouse IgG1 κ PE (BD, 559320) and anti-mouse IgG1 κ APC (BD, Anti mouse IgG1 κ APC (BD, 55571). Mature M1 macrophages were defined as CD86+CD68+CD163− and increase in TNFα, IL6, and decrease in IL-10.
# [5] = FXN GM04078, read-out: Decreased ROS by at least 10%
# [6] = MMA Tsi 5224, assay condition A (10 mM glucose, 2 mM L-glutamine, 1 mM pyruvate, 10% FBS), read-out: Increase in Maximal Respiratory Capacity AUC
# [7] = MMA Tsi 5224, assay condition D (1 mM glucose, 10% FBS), read-out: Increase in Maximal Respiratory Capacity AUC
# [8] = FXN GM04078, read-out: Decreased ROS by at least 30%
# [9] = Fibroblast, PC GM00444, read-out: Decreased ROS by at least 10%
# [10] = Fibroblast, PC GM00444, read-out: Decreased ROS by at least 30%
compound,measurement,setting,value
CC(O)CC(=O)CC(=O)CC(=O)SCCNC(=O)CCNC(=O)[C@H](O)C(C)(C)CO (stereo partly drawn) [Compound 379],inhibition at 10 µM,[1]; [5],≥ 10%
"COC(=O)C(=O)SCCNC(=O)CCNC(=O)[C@H](O)C(C)(C)CO [Compound 30, Methyl (R)-2-((2-(3-(2,4-dihydroxy-3,3-dimethylbutanamido)propanamido)ethyl)thio)-2-oxoacetate]",activation at 10 µM,[2]; [6],≥ 10%
CC(C)(COC(=O)CCC(=O)O)[C@@H](O)C(=O)NCCC(=O)NCCSC(=O)CCC(=O)O [Compound 1232],activation at 10 µM,[2]; [6],≥ 10%
same,activation at 10 µM,[2]; [7],≥ 10%
same,inhibition at 10 µM,"[1]; Fibroblast, VLCFA GM13262, read-out: Decreased ROS by at least 10%",≥ 10%
same,inhibition at 10 µM,"[1]; Fibroblast, VLCFA GM13262, read-out: Decreased ROS by at least 30%",≥ 30%
same,inhibition at 10 µM,[1]; [5],≥ 10%
same,inhibition at 10 µM,[1]; [8],≥ 30%
"COC(=O)[C@@H](N)CCC(=O)SCCNC(=O)CCNC(=O)[C@H](O)C(C)(C)CO [Compound 412, methyl (2S)-2-amino-5-[(2-[3-[(2R)-2,4-dihydroxy-3,3-dimethylbutanamido]propanamido]ethyl)sulfanyl]-5-oxopentanoate]",inhibition at 10 µM,[1]; [9],≥ 10%
same,inhibition at 10 µM,[1]; [10],≥ 30%
same,inhibition at 10 µM,[1]; [5],≥ 10%
same,inhibition at 10 µM,[1]; [8],≥ 30%
CC(C)(C)OC(=O)N[C@@H](CC(=O)SCCNC(=O)CCNC(=O)[C@H](O)C(C)(C)CO)C(=O)OC(C)(C)C [Compound 1318],activation at 10 µM,"[2]; MMA Tsi 5224, assay condition B (1 mM glucose, 2 mM L-glutamine, 1 mM pyruvate, 10% FBS), read-out: Increase in Spare Capacity AUC",≥ 10%
"COC(=O)CCC(=O)CC(=O)SCCNC(=O)CCNC(=O)[C@H](O)C(C)(C)CO [Compound 5, methyl 6-[(2-[3-[(2R)-2,4-dihydroxy-3,3-dimethylbutanamido]propanamido]ethyl)sulfanyl]-4,6-dioxo-hexanoate]",activation at 50 µM,[3],≥ 10%
"CC(=O)C(C)C(=O)SCCNC(=O)CCNC(=O)[C@H](O)C(C)(C)CO (stereo partly drawn) [Compound 396, (2R)-2,4-dihydroxy-3,3-dimethyl-N-[2-([2-[(2-methyl-3-oxobutanoyl)sulfanyl]ethyl]carbamoyl)ethyl]butanamide]",activation at 50 µM,[3],≥ 10%
same,inhibition at 10 µM,[1]; [9],≥ 10%
same,inhibition at 10 µM,[1]; [10],≥ 30%
COC(=O)[C@@H](N)CC(=O)SCCNC(=O)CCNC(=O)[C@H](O)C(C)(C)CO [Compound 415],% decrease in Live Macrophage Cells,[4]; 50 uM,≥20%
same,activation at 10 µM,"[4]; Homo sapiens, Macrophage, 10 uM, read-out: % Increase in IL-10 Secretion",≥ 30%
same,inhibition at 10 µM,"[4]; Homo sapiens, Macrophage, 10 uM, read-out: % decrease in Macrophage IL-6 Secretion",≥ 30%
same,inhibition at 10 µM,"[4]; Homo sapiens, Macrophage, 10 uM, read-out: % decrease in Macrophage TNFα Secretion",≥ 30%
same,activation at 10 µM,"[2]; MMA Tsi 5224, assay condition D (1 mM glucose, 10% FBS), read-out: Increase in Spare Capacity AUC",≥ 10%
"COC(=O)CC(SCCNC(=O)CCNC(=O)[C@H](O)C(C)(C)COP(=O)(O)O)C(=O)OC (stereo partly drawn) [Compound 86, dimethyl 2-((2-(3-((R)-2-hydroxy-3,3-dimethyl-4-(phosphonooxy)butanamido)propanamido)ethyl)thio)succinate]",% Increase in Live Macrophage Cells,[4]; 10 uM,≥20%
same,activation at 10 µM,[2]; [7],≥ 10%
